Like-named read-outs stand apart in the source and are kept apart here. One block for each molecule: values may come before it.
How the values were obtained:
[1] = system: human peripheral blood mononuclear cells (PBMCs); test: Immunological analysis: activation of immune cells by flow cytometry; format: cell-based
Procedure: The analysis of the effect on immune cells in vitro was performed with human peripheral blood mononuclear cells (PBMCs) isolated from “buffy coats” using a Ficoll density gradient (Histopaque, Sigma-Aldrich Co.). The procedure was approved by the Independent Bioethics Commission for Research of the Medical University of Gdańsk (NKBBN/387/2014). 100 ul of 1% RADA-PDGF2 was placed in a 24-well plate. Then, culture inserts with a pore diameter of 0.4 μm were placed in the wells, and cells were seeded into them in the amount of 0.5 million cells/0.5 mL RPMI 1640 (P/S, 10% FBS)/well. This was then supplemented with medium alone to a final volume of 1 mL/well. Cells were incubated in standard conditions for 24 h. The negative control was unstimulated cells, grown in the insert, in a well without gels. RADA16-I constituted an additional control. After the incubation, cells were harvested, washed in PBS, counted, and prepared for cytometric analysis. 100,000 cells/100 µL were stained with fluorochrome-conjugated monoclonal antibodies (anti-CD3, anti-CD4, anti-CD8, anti-CD16, anti-CD56, anti-CD25, anti-CD69, anti-CD71, anti-HLA-DR, anti-CD11c, anti-CD80, and anti-CD83). Following 30 min of incubation at room temperature (RT) in the dark, the cells were analyzed using a flow cytometer (LSRFortessa, BD).

[2] = previous stability studies; ref Dzierżyńska et al., 2023; cited from earlier work
mice = conditions: applied topically in 18% P407 hydrogel, mice model; ref Deptuła et al., 2020; cited from earlier work
From the text: (§1) Platelet-derived growth factor BB (PDGF-BB), one of the first growth factors released into the wound, plays a crucial role in the wound healing process. It is responsible for the formation of granulation tissue, production of extracellular matrix (ECM), takes part in the recruitment of mesenchymal stromal cells (MSCs), and stimulates the proliferation of fibroblasts ([White et al., 2021]). In 1997, the FDA approved human recombinant PDGF-BB in sodium carboxy-methylcellulose (NaCMC) hydrogel (Regranex®) for the treatment of DFUs ([Reyes-Martínez et al., 2019]). However, because of the high cos ...

[3] = system: human skin cells, especially keratinocytes; conditions: ref Deptuła et al., 2020; cited from earlier work
From the text: as §1

[4] = system: lymphocytes and basophils; conditions: cited from earlier work
From the text: as §1

skin cells = conditions: cited from earlier work
From the text: Platelet-derived growth factor BB (PDGF-BB), one of the first growth factors released into the wound, plays a crucial role in the wound healing process. It is responsible for the formation of granulation tissue, production of extracellular matrix (ECM), takes part in the recruitment of mesenchymal stromal cells (MSCs), and stimulates the proliferation of fibroblasts ([White et al., 2021]). In 1997, the FDA approved human recombinant PDGF-BB in sodium carboxy-methylcellulose (NaCMC) hydrogel (Regranex®) for the treatment of DFUs ([Reyes-Martínez et al., 2019]). However, because of the high cos ... || During the development of new biomaterials, it is crucial to analyze not only their physicochemical properties and activity but also their biocompatibility and potential risk to human cells and tissues ([Schmalz and […], 2017]). That is why we decided to evaluate the cytotoxicity of RADA-PDGF2 and its effect on immune cells. Based on our experience and literature data, we know that peptides can be cytotoxic to human cells ([Greco et al., 2020]). […] However, RADA- ...

[5] = in vivo, iv; cited from earlier work
From the text: as §1

[6] = system: human neutrophil elastase; test: human neutrophil elastase enzyme (EC No. 3.4.21.37, Sigma Aldrich, USA) in 25 mM Tris HCl buffer, pH 7.5; conditions: 37°C, up to 30 min
[7] = format: physicochemical
Procedure: Blood samples provided by healthy volunteers were processed with lithium/heparin tubes to eliminate clots by centrifugation. Plasma aliquots were mixed with RADA-PDGF2 peptide for 24 h at 37°C, using a plasma to peptide volume ratio of (4:1% v/v), to obtain final concentration 2.69 µM of RADA-PDGF2 peptide.). Samples were collected at six time points (0, 1, 2, 3, 6, and 24 h) to assess water and plasma stability. The collected samples were then prepared and analyzed according to the protocol described earlier ([Dzierżyńska et al., 2023]).

[8] = system: dermal fibroblast, 46BR.1N fibroblast, and HaCaT keratinocytes; format: cell-based, human
Procedure: Cell viability of dermal fibroblast, 46BR.1N fibroblast, and HaCaT keratinocytes was analyzed after 4 days of cell culture on RADA-PDGF2 hydrogel. RADA-PDGF2 was dissolved in water at a concentration of 1% w/v and placed in the inserts (0.4 µm) located in a 24-well plate. The whole was incubated for at least 1 hour at 37°C to allow gelation. Then, twice the volume of DMEM HG medium was added to the gel and left overnight in the incubator. The cells were trypsinized, centrifuge and then seeded on a gel at 50,000 per insert in DMEM HG medium with 2% FBS and 1% P/S. The medium was changed to DMEM HG with 2% FBS and 1% P/S after 2 days of incubation. After 4 days of incubation to assess viability, cells were stained with Calcein-AM (c = 8 µM) and propidium iodide (2 μg/mL) for 30 min and then analyzed by confocal microscopy with the use of Nikon Eclipse Ti-e Confocal Microscope.

- overall immunological assessment ([1]; PBMCs, 24 h, due to the low values of the changes): safe in an immunological context
Molecule: CC(=O)N[C@@H](CCCNC(=N)N)C(=O)N[C@@H](C)C(=O)N[C@@H](CC(=O)O)C(=O)N[C@@H](C)C(=O)N[C@@H](CCCNC(=N)N)C(=O)N[C@@H](C)C(=O)N[C@@H](CC(=O)O)C(=O)N[C@@H](C)C(=O)N[C@@H](CCCNC(=N)N)C(=O)N[C@@H](C)C(=O)N[C@@H](CC(=O)O)C(=O)N[C@@H](C)C(=O)N[C@@H](CCCNC(=N)N)C(=O)N[C@@H](C)C(=O)N[C@@H](CC(=O)O)C(=O)N[C@@H](C)C(N)=O [RADA16-I, reference compound]
- presence of peptide in plasma [2]: did not show prolonged presence of peptide in plasma

Molecule: RLIDRTNANFL [PDGF2, peptide … derived from PDGF-BB]
- effect on wound healing (mice): accelerates wound healing
- pro-proliferative properties [3]: strong pro-proliferative properties
- immunogenicity in vitro [4]: negligible lymphocyte and basophil activation
- cytotoxicity (skin cells): minimal cytotoxicity

Molecule: PDGF-BB: Platelet-derived growth factor BB
- half-life [5]: a few minutes

- cleaved bond [6]: V23-G24, major
Molecule: Ac-(RADA)4GGGAAPVGGGRLIDRTNANFL-NH2

- CD11c+CD83+ active DCs population compared to untreated control [1]: statistically significant increase
- NK cells: expression of CD25 [1]: slight increase
- NK cells: expression of CD71 [1]: reduction
- NK cells: statistical significance of change in activation markers [1]: no statistical significance was noted
- overall immunological assessment [1]: safe in an immunological context
- time over which the peptide exhibited chemical stability in aqueous solution [7]: 24 h
Molecule: CC[C@H](C)[C@H](NC(=O)[C@H](CC(C)C)NC(=O)[C@H](CCCNC(=N)N)NC(=O)CNC(=O)CNC(=O)CNC(=O)[C@@H](NC(=O)[C@@H]1CCCN1C(=O)[C@H](C)NC(=O)[C@H](C)NC(=O)CNC(=O)CNC(=O)CNC(=O)[C@H](C)NC(=O)[C@H](CC(=O)O)NC(=O)[C@H](C)NC(=O)[C@H](CCCNC(=N)N)NC(=O)[C@H](C)NC(=O)[C@H](CC(=O)O)NC(=O)[C@H](C)NC(=O)[C@H](CCCNC(=N)N)NC(=O)[C@H](C)NC(=O)[C@H](CC(=O)O)NC(=O)[C@H](C)NC(=O)[C@H](CCCNC(=N)N)NC(=O)[C@H](C)NC(=O)[C@H](CC(=O)O)NC(=O)[C@H](C)NC(=O)[C@H](CCCNC(=N)N)NC(C)=O)C(C)C)C(=O)N[C@@H](CC(=O)O)C(=O)N[C@@H](CCCNC(=N)N)C(=O)N[C@H](C(=O)N[C@@H](CC(N)=O)C(=O)N[C@@H](C)C(=O)N[C@@H](CC(N)=O)C(=O)N[C@@H](Cc1ccccc1)C(=O)N[C@@H](CC(C)C)C(N)=O)[C@@H](C)O [RADA-PDGF2]
- Th cells: expression of activation markers versus unstimulated cells [1]: any statistically significant differences between unstimulated cells and cells stimulated with RADA-PDGF2 were not observed
- cytotoxic lymphocytes (CTL): expression of CD69 marker [1]: increased expression
- skin cell viability on hydrogel [8]: remained viable

Source: PMC10716921 (Frontiers in Pharmacology, 2023)
